We go through four compounds from ChEMBL document CHEMBL4184141, “Investigating the Antibacterial Activity of Biphenylthiazoles against Methicillin- and Vancomycin-Resistant Staphylococcus aureus (MRSA and VRSA)” (J Med Chem, 2017).

In brackets after ≈: the same amount, converted by molar mass. Activity calls are given as the source filed them. The rule behind the calls is not given here.

Data set [1] deals with Staphylococcus aureus. The experiment in a line: Antibacterial activity against methicillin-resistant Staphylococcus aureus 2658 RCMB up to 20 hrs by broth microdilution assay. It counts as functional.
Data set [2] concerns Staphylococcus aureus. The data set is described as follows: Bactericidal activity against methicillin-resistant Staphylococcus aureus USA300 assessed as time required for 3 log10CFU reduction in bacterial load at 4 times MIC by time kill assay. It counts as functional.
The nature of data set [3]: Aqueous solubility of the compound in PBS after 2 hrs by turbidimetric method. In kind it is physicochemical.
Data set [4] can be described thus: Apparent permeability of the compound across basolateral side to apical side in human Caco2 cells by LC-MS/MS analysis. In kind it is ADME, cell-based. The settings on record: Caco-2. (In general: Passage across Caco-2 layers is used to estimate intestinal permeability.)
A short description of data set [5]: Efflux ratio of permeability from basolateral to apical side over apical to basolateral side of human Caco2 cells by LC-MS/MS analysis. The conditions noted are these: Caco-2. It counts as ADME, cell-based.
The subject of data set [6] is Staphylococcus aureus. The experiment in a line: Antibacterial activity against Staphylococcus aureus RN4220 up to 20 hrs by broth microdilution assay. The settings on record: RN4220, 20 h. In kind it is functional.
Data set [7] relates to Staphylococcus aureus. The data set is described as follows: Antibacterial activity against methicillin-resistant Staphylococcus aureus NRS119 up to 20 hrs by broth microdilution assay. In kind it is functional. The settings on record: NRS119, 20 h.
Data set [8] deals with Staphylococcus aureus. The data set is described as follows: Antibacterial activity against methicillin-resistant Staphylococcus aureus USA400 NRS123 up to 20 hrs by broth microdilution assay. In kind it is functional. The conditions noted are these: USA400 NRS123, 20 h.
Data set [9] relates to Staphylococcus aureus. The data set is described as follows: Antibacterial activity against vancomycin-resistant Staphylococcus aureus VRS10 up to 20 hrs by broth microdilution assay. In kind it is functional. The settings on record: VRS10, 20 h.
Data set [10] relates to Staphylococcus aureus. The data set is described as follows: Antibacterial activity against vancomycin-resistant Staphylococcus aureus VRS11a up to 20 hrs by broth microdilution assay. It counts as functional.
The test system of data set [11] is Staphylococcus aureus. The experiment in a line: Antibacterial activity against vancomycin-resistant Staphylococcus aureus VRS12 up to 20 hrs by broth microdilution assay. In kind it is functional. The conditions noted are these: VRS12, 20 h. For orientation: In broth dilution the organism is exposed to a series of concentrations in liquid medium.
The test system of data set [12] is Staphylococcus aureus. The data set is described as follows: Bactericidal activity against Staphylococcus aureus RN4220 up to 18 hrs by broth microdilution assay. It counts as functional. The conditions noted are these: RN4220, 18 h, read-out: MBC99.9.
Data set [13] deals with Staphylococcus aureus. The experiment in a line: Bactericidal activity against methicillin-resistant Staphylococcus aureus NRS119 up to 18 hrs by broth microdilution assay. It counts as functional. The conditions noted are these: NRS119, 18 h, read-out: MBC99.9.
Data set [14] has as its system Staphylococcus aureus. The experiment in a line: Bactericidal activity against methicillin-resistant Staphylococcus aureus USA400 NRS123 up to 18 hrs by broth microdilution assay. In kind it is functional. The settings on record: USA400 NRS123, 18 h, read-out: MBC99.9.
Data set [15] deals with Staphylococcus aureus. The experiment in a line: Bactericidal activity against vancomycin-resistant Staphylococcus aureus VRS10 up to 18 hrs by broth microdilution assay. It counts as functional. The conditions noted are these: VRS10, 18 h, read-out: MBC99.9.
The test system of data set [16] is Staphylococcus aureus. The experiment in a line: Bactericidal activity against vancomycin-resistant Staphylococcus aureus VRS11a up to 18 hrs by broth microdilution assay. In kind it is functional. The conditions noted are these: read-out: MBC99.9.
Data set [17] has as its system Staphylococcus aureus. The experiment in a line: Bactericidal activity against vancomycin-resistant Staphylococcus aureus VRS12 up to 18 hrs by broth microdilution assay. It counts as functional. The conditions noted are these: VRS12, 18 h, read-out: MBC99.9.
In data set [18] the test system is Staphylococcus aureus. The data set is described as follows: Potentiation of vancomycin-induced antibacterial activity against vancomycin-resistant Staphylococcus aureus VRS10 assessed as vancomycin MIC at 0.5 times MIC after 20 to 22 hrs (reference value: […] ug/mL). In kind it is functional.
The test system of data set [19] is HRT-18 cell line. The data set is described as follows: Cytotoxicity against human HRT18 cells up to 128 microg/ml after 6 hrs by MTS assay. The conditions noted are these: hrt-18, 6 h. In kind it is cell-based. On the technique in general: Tetrazolium dyes change colour on reduction, which living cells bring about.
Data set [20] relates to Staphylococcus aureus. The experiment in a line: Synergistic antibacterial activity against vancomycin-resistant Staphylococcus aureus VRS10 after 20 hrs in presence of vancomycin by checkerboard assay. It counts as functional. The settings on record: VRS10, 20 h.
The subject of data set [21] is Staphylococcus aureus. The data set is described as follows: Potentiation of vancomycin-induced antibacterial activity against vancomycin-resistant Staphylococcus aureus VRS10 assessed as vancomycin MIC after 20 hrs by checkerboard assay. In kind it is functional. The settings on record: VRS10, 20 h.
In data set [22] the test system is Staphylococcus aureus. The data set is described as follows: Potentiation of vancomycin-induced antibacterial activity against vancomycin-resistant Staphylococcus aureus VRS10 assessed as reduction in vancomycin MIC after 20 hrs by checkerboard assay. In kind it is functional.
Data set [23] can be described thus: Half life in human liver microsomes in presence of NADPH by LC-MS/MS analysis. In kind it is ADME, microsome.
Data set [24] in a line: Intrinsic clearance in human liver microsomes in absence of NADPH by LC-MS/MS analysis. The settings on record: read-out: CLH. In kind it is ADME, microsome.
For the next data set, the system named is Enterococcus faecium. The experiment in a line: Antibacterial activity against vancomycin-resistant Enterococcus faecium ATCC 700221 up to 20 hrs by broth microdilution assay. It counts as functional. The conditions noted are these: ATCC 700221, 20 h.
Another data set relates to Pseudomonas aeruginosa. The experiment in a line: Antibacterial activity against Pseudomonas aeruginosa ATCC 15442 up to 20 hrs by broth microdilution assay. In kind it is functional. The settings on record: ATCC 15442, 20 h.
Data set [25] has as its system Staphylococcus aureus. The data set is described as follows: Potency index, ratio of vancomycin MIC to compound MIC for antibacterial activity against vancomycin-resistant Staphylococcus aureus VRS10. It counts as functional.
Data set [26] deals with Staphylococcus aureus. The experiment in a line: Potency index, ratio of vancomycin MIC to compound MIC for antibacterial activity against vancomycin-resistant Staphylococcus aureus VRS11a. It counts as functional.
Data set [27] has as its system Staphylococcus aureus. The experiment in a line: Potency index, ratio of vancomycin MIC to compound MIC for antibacterial activity against vancomycin-resistant Staphylococcus aureus VRS12. It counts as functional.
Data set [28] concerns Staphylococcus aureus. The data set is described as follows: Bactericidal activity against methicillin-resistant Staphylococcus aureus USA300 assessed as time required to reduce bacterial load to 0 at 4 times MIC by time-kill assay. It counts as functional.
A short description of data set [29]: Intrinsic clearance in human liver microsomes in presence of NADPH by LC-MS/MS analysis. The conditions noted are these: read-out: CLH. It counts as ADME, microsome.
A short description of data set [30]: Half life in human liver microsomes in absence of NADPH by LC-MS/MS analysis. In kind it is ADME, microsome.
The subject of data set [31] is Staphylococcus aureus. The data set is described as follows: Potentiation of vancomycin-induced antibacterial activity against vancomycin-resistant Staphylococcus aureus VRS10 assessed as fold reduction in vancomycin MIC at 0.5 times MIC after 20 to 22 hrs. It counts as functional.
The test system of data set [32] is Staphylococcus aureus. The data set is described as follows: Antibacterial activity against methicillin-resistant Staphylococcus aureus USA300 infected in Caenorhabditis elegans AU37 harboring (sek-1(km4);glp-4(bn2)I) mutant assessed as reduction in bacterial burden at 20 ug/ml after 18 hrs by microscopic analysis relative to control. It counts as functional. Details: scale not given: the % may be the effect or the level left.

The subject of data set [33] is HRT-18 cell line. The experiment in a line: Cytotoxicity against human HRT18 cells up to 32 microg/ml after 6 hrs by MTS assay. It counts as cell-based. The settings on record: hrt-18, 6 h.
Data set [34] concerns HRT-18 cell line. The experiment in a line: Cytotoxicity against human HRT18 cells at 64 microg/ml after 6 hrs by MTS assay. In kind it is cell-based. The conditions noted are these: hrt-18, 6 h.

For orientation: MIC means the least concentration at which growth counts as inhibited. What is called solubility (kinetic) is the concentration staying in solution when a stock, usually in DMSO, is diluted into the medium. What is called Papp B→A is the apparent permeability from the basolateral to the apical side of a cell layer. The efflux ratio is a quotient of directional permeabilities that is used to spot active efflux. As for `C/C(=N\NC(=N)N)c1sc(-c2ccc(-c3ccccc3)cc2)nc1C`, in the data set on Staphylococcus aureus [1], the MIC was 1.6 to 2.4 µg/mL (≈ 4.58 to 6.87 µM). Also, the Time in the data set with Staphylococcus aureus [2] turned out to be 10 h. Moreover, the kinetic solubility at 2 h in data set [3] amounted to 2.7 µM (≈ 0.944 µg/mL). In addition, the Papp B→A in data set [4] was 1.2 ×10⁻⁶ cm/s. Moreover, in data set [5], the efflux ratio is above 2.
For the compound `CNC(=N)Nc1nccc(-c2sc(-c3ccc(-c4ccccc4)cc3)nc2C)n1`, the MIC is 1.56 µg/mL (≈ 3.9 µM) in the data set on Staphylococcus aureus [1]; 8 µg/mL (≈ 20 µM) in the data set on Staphylococcus aureus [6]; 8 µg/mL (≈ 20 µM) in the data set on Staphylococcus aureus [7]; 16 µg/mL (≈ 39.9 µM) against Staphylococcus aureus [8]; 32 µg/mL (≈ 79.9 µM) with Staphylococcus aureus [9]; 32 µg/mL (≈ 79.9 µM) in the data set on Staphylococcus aureus [10]. The compound further registered an MIC against Staphylococcus aureus [11] of 64 µg/mL (≈ 160 µM). In addition, the MBC in the data set with Staphylococcus aureus [12] amounted to 32 µg/mL (≈ 79.9 µM); with Staphylococcus aureus [13], 16 µg/mL (≈ 39.9 µM); with Staphylococcus aureus [14], 16 µg/mL (≈ 39.9 µM); with Staphylococcus aureus [15], 64 µg/mL (≈ 160 µM); in the data set on Staphylococcus aureus [16], 64 µg/mL (≈ 160 µM); in the data set with Staphylococcus aureus [17] it was 64 µg/mL (≈ 160 µM).
As for `Cc1nc(-c2ccc(-c3ccccc3)cc2)sc1-c1ccnc(N2CCN(C)CC2)n1`, the MIC in the data set with Staphylococcus aureus [1] was 6.25 µg/mL (≈ 14.6 µM); with Staphylococcus aureus [9], 32 µg/mL (≈ 74.8 µM); in the data set on Staphylococcus aureus [18], 1 µg/mL; with Staphylococcus aureus [20], 1 µg/mL; in the data set on Staphylococcus aureus [21], 0.5 to 64 µg/mL. Also, the Activity result in the data set on HRT-18 cell line [19] is reported as “Non-Toxic”. Moreover, the “fractional inhibitory concentration index (FICI)” value in the data set on Staphylococcus aureus [22] is reported as 0.03 - 0.53.
Usually half-life stands for the time in which the quantity being followed falls by half. Regarding `Cc1nc(-c2ccc(-c3ccccc3)cc2)sc1-c1ccnc(NC(=N)N2CCN(C)CC2)n1`, the half-life in [23] is 2.52 h; in data set [30], above 4 h. In addition, the values for the microsomal CLint in data set [24] and in data set [29] were below 9.6 µL/min/mg and 15.3 µL/min/mg, respectively. Besides, the MIC in the data set on Staphylococcus aureus [1] was 0.39 µg/mL (≈ 0.83 µM); against Staphylococcus aureus [6], 2 µg/mL (≈ 4.26 µM); against Staphylococcus aureus [7] it was 2 µg/mL (≈ 4.26 µM); with Staphylococcus aureus [8], 1 µg/mL (≈ 2.13 µM); against Staphylococcus aureus [9] it was 4 to 8 µg/mL (≈ 8.52 to 17 µM); in the data set on Staphylococcus aureus [10] it was 4 µg/mL (≈ 8.52 µM). Moreover, the MIC in the data set on Staphylococcus aureus [11] is 2 µg/mL (≈ 4.26 µM); against Enterococcus faecium, 16 µg/mL (≈ 34.1 µM); against Pseudomonas aeruginosa, above 64 µg/mL; in the data set on Staphylococcus aureus [20], 0.13 µg/mL; with Staphylococcus aureus [21], 128 to 256 µg/mL. Also, the MBC in the data set on Staphylococcus aureus [12] worked out at 8 µg/mL (≈ 17 µM); in the data set with Staphylococcus aureus [13] it was 4 µg/mL (≈ 8.52 µM); in the data set on Staphylococcus aureus [14] it was 2 µg/mL (≈ 4.26 µM); in the data set on Staphylococcus aureus [15] it was 8 µg/mL (≈ 17 µM); in the data set on Staphylococcus aureus [16] it was 8 µg/mL (≈ 17 µM); with Staphylococcus aureus [17], 8 µg/mL (≈ 17 µM). In addition, the Ratio in the data set with Staphylococcus aureus [25] is 100; in the data set with Staphylococcus aureus [26], 100; in the data set with Staphylococcus aureus [27] it was 8. For the same compound, the Time with Staphylococcus aureus [28] was 2 h. In addition, the solubility (kinetic) at 2 h in [3] was 2.3 µM (≈ 1.08 µg/mL). Further, the Papp B→A in [4] was determined as 1.7 ×10⁻⁶ cm/s. Moreover, the efflux ratio in data set [5] was above 2. The outcome with Staphylococcus aureus [31] was inactive. In addition, the Activity in the data set on Staphylococcus aureus [32] is recorded as 65%; in the data set with HRT-18 cell line [33], “Non-Toxic”; with HRT-18 cell line [34], “Toxic”. In addition, in the data set on Staphylococcus aureus [22], the “fractional inhibitory concentration index (FICI)” value was 1.02.
